Results as given in US20250388604A1, “Compounds and Their Use as PDE4 Activators” (Mironid Limited, priority 2022, published 2025).

Key:
m-IMCD3 cells = assay: Inhibition of PGE2-stimulated in vitro cyst formation in m-IMCD3 cells; assay type: cell-based, mouse; conditions: Mus musculus, mIMCD3, 144 h, mean cyst area, 100% for (DMSO + PGE2) and 0% for DMSO control, 6 days of culture; for activity at 10 µM: read-out: % Cyst area after incubation with 10 μM test compound; for activity at 3 µM: read-out: % Cyst area after incubation with 3 μM test compound
Procedure, shortened: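 m-IMCD3 cells embedded in collagen I/Matrigel 3D culture; 18–24 h after plating, compound (0.1% DMSO final) plus PGE2 (100 nM final) added, replenished after 2 or 3 days. After 6 days, z-stack imaging gave mean cyst area, normalized to DMSO+PGE2 (100%) and DMSO (0%).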

[1] = test system: m-IMCD3 cells expressing PDE4 long forms; assay: cAMP levels in PGE2-stimulated 3D m-IMCD3 cell culture media; assay type: cell-based; conditions: Mus musculus, mIMCD3, compared to 100% for (DMSO + PGE2), read-out: cAMP level (% of PGE2-stimulated); for activity at 10 µM: 10 μM test compound; for activity at 3 µM: 3 μM test compound
Description: HEK 293 and MDCK cells (Public Health England, Cell Culture Collections) were maintained in Dulbecco's Modified Eagle's Medium (DMEM) supplemented with 10% (v/v) fetal bovine serum (FBS) (Seralab), 2 mM L-glutamine and 100 U/mL penicillin streptomycin cocktail (ThermoFisher); termed complete media. Clonal HEK 293 cell lines were maintained in complete media supplemented with 0.6 mg/ml G418 (Enzo Life Sciences). Mouse inner medullary collecting duct (m-IMCD3) cells [American Type Culture Collection (ATCC)] were maintained in media consisting of DMEM/Hams F-12 50/50 Mix (DMEM F12; Corning) supplemented with penicillin streptomycin cocktail (100 U/mL) and FBS (10% v/v) (DMEM F12-10% FBS).
Activation of intracellular PDE4 long forms leads to a reduction of both intracellular cAMP and externalised cAMP (Omar et al., PNAS 116: 13320-13329, 2019). This reduction may be measured in the cell culture media supernatant of 3D cystic cell cultures, such as in the m-IMCD3 cell cyst suppression assay described in Experiment 3.
Following the completion of the m-IMCD3 cell cyst suppression assay (Experiment 3), the cAMP level in the assay media from individual or pooled assay wells was measured using a cAMP ELISA kit (Enzo Life Sciences) or a LANCE Ultra cAMP kit (PerkinElmer) according to the manufacturer's instructions.

O=C(CC1CCCC1)N1CCc2nc(N3C4CCC3CNC4)sc2C1 [Example 1, 1-(2-(3,8-diazabicyclo[3.2.1]octan-8-yl)-6,7-dihydrothiazolo[5,4-c]pyridin-5(4H)-yl)-2-cyclopentylethan-1-one]
activity at 10 µM (m-IMCD3 cells): -5% | activity at 10 µM [1]: 14%

CC(C)(C)CC(=O)N1CCc2nc(N3C4CCC3CNC4)sc2C1 [Example 10, 1-(2-(3,8-diazabicyclo[3.2.1]octan-8-yl)-6,7-dihydrothiazolo[5,4-c]pyridin-5(4H)-yl)-3,3-dimethylbutan-1-one]
activity at 10 µM (m-IMCD3 cells): -3% | activity at 10 µM [1]: 38%

O=C(CC1CCCC1)N1Cc2nc(N3C4CCC3CNC4)sc2C1 [Example 66, 1-(2-(3,8-diazabicyclo[3.2.1]octan-8-yl)-4,6-dihydro-5H-pyrrolo[3,4-d]thiazol-5-yl)-2-cyclopentylethan-1-one]
activity at 10 µM (m-IMCD3 cells): -5% | activity at 3 µM [1]: 36%

O=C(NC1CCCC1)N1Cc2nc(N3C4CCC3CNC4)sc2C1 [Example 68, 2-(3,8-diazabicyclo[3.2.1]octan-8-yl)-N-cyclopentyl-4,6-dihydro-5H-pyrrolo[3,4-d]thiazole-5-carboxamide]
activity at 10 µM (m-IMCD3 cells): -4% | activity at 3 µM [1]: 19%

O=C(CC1CCCC1)N1CCc2nc(C3CCNCC3)sc2C1 [Example 118, 2-cyclopentyl-1-(2-(piperidin-4-yl)-6,7-dihydrothiazolo[5,4-c]pyridin-5(4H)-yl)ethan-1-one]
activity at 10 µM (m-IMCD3 cells): 5% | activity at 3 µM [1]: 52%

O=C(N1CCn2nc(N3C4CCC3CNC4)cc2C1)C(F)(F)c1ccccc1 [Example 126, 1-(2-(3,8-diazabicyclo[3.2.1]octan-8-yl)-6,7-dihydropyrazolo[1,5-a]pyrazin-5(4H)-yl)-2,2-difluoro-2-phenylethan-1-one]
activity at 10 µM (m-IMCD3 cells): -10% | activity at 3 µM [1]: 39%

O=C(CC1CCCC1)N1CCn2nc(N3C4CCC3CNC4)cc2C1 [Example 127, 1-(2-(3,8-diazabicyclo[3.2.1]octan-8-yl)-6,7-dihydropyrazolo[1,5-a]pyrazin-5(4H)-yl)-2-cyclopentylethan-1-one]
activity at 10 µM (m-IMCD3 cells): 3% | activity at 3 µM [1]: 42%

CC1(CC(=O)N2CCn3nc(N4C5CCC4CNC5)cc3C2)CCCC1 [Example 128, 1-(2-(3,8-diazabicyclo[3.2.1]octan-8-yl)-6,7-dihydropyrazolo[1,5-a]pyrazin-5(4H)-yl)-2-(1-methylcyclopentyl)ethan-1-one]
activity at 10 µM (m-IMCD3 cells): -2% | activity at 3 µM [1]: 50%

O=C([C@H](O)C1CCCC1)N1CCc2nc(N3C4CCC3CNC4)sc2C1 [Example 171, (2R)-1-(2-(3,8-diazabicyclo[3.2.1]octan-8-yl)-6,7-dihydrothiazolo[5,4-c]pyridin-5(4H)-yl)-2-cyclopentyl-2-hydroxyethan-1-one]
activity at 3 µM (m-IMCD3 cells): 6% | activity at 3 µM [1]: 56%

O=C(C1COc2ccccc21)N1CCc2nc(N3C4CCC3CNC4)sc2C1 (centres unmarked) [Example 184, (2-(3,8-diazabicyclo[3.2.1]octan-8-yl)-6,7-dihydrothiazolo[5,4-c]pyridin-5(4H)-yl)(2,3-dihydrobenzofuran-3-yl)methanone]
activity at 3 µM (m-IMCD3 cells): 15% | activity at 3 µM [1]: 58%

O=C(c1ccc(C(F)(F)F)nc1)N1CCc2nc(N3C4CCC3CNC4)sc2C1 [Example 241, (2-(3,8-diazabicyclo[3.2.1]octan-8-yl)-6,7-dihydrothiazolo[5,4-c]pyridin-5(4H)-yl)(6-(trifluoromethyl)pyridin-3-yl)methanone]
activity at 3 µM (m-IMCD3 cells): 4% | activity at 3 µM [1]: 43%

O=C(OC1CCCC1)N1CCc2nc(N3C4CCC3CNC4)sc2C1 [Example 244, cyclopentyl 2-(3,8-diazabicyclo[3.2.1]octan-8-yl)-6,7-dihydrothiazolo[5,4-c]pyridine-5(4H)-carboxylate]
activity at 3 µM (m-IMCD3 cells): 6% | activity at 3 µM [1]: 40%

CC(C)CC(=O)N1Cc2sc(N3C4CCC3CNC4)nc2C(C)(C)C1 [Example 257, 1-(2-(3,8-diazabicyclo[3.2.1]octan-8-yl)-7,7-dimethyl-6,7-dihydrothiazolo[5,4-c]pyridin-5(4H)-yl)-3-methylbutan-1-one]
activity at 3 µM (m-IMCD3 cells): -3% | activity at 3 µM [1]: 36%

CC1(C)CN(C(=O)CC2CCC3(CC2)COC3)Cc2sc(N3C4CCC3CNC4)nc21 [Example 260, 1-(2-(3,8-diazabicyclo[3.2.1]octan-8-yl)-7,7-dimethyl-6,7-dihydrothiazolo[5,4-c]pyridin-5(4H)-yl)-2-(2-oxaspiro[3.5]nonan-7-yl)ethan-1-one]
activity at 3 µM (m-IMCD3 cells): 10% | activity at 3 µM [1]: 52%

CC(C)C(=O)N1Cc2sc(N3C4CCC3CNC4)nc2CC1(C)C [Example 268, 1-(2-(3,8-diazabicyclo[3.2.1]octan-8-yl)-6,6-dimethyl-6,7-dihydrothiazolo[5,4-c]pyridin-5(4H)-yl)-2-methylpropan-1-one]
activity at 3 µM (m-IMCD3 cells): 1% | activity at 3 µM [1]: 39%

O=C(CC1CCCC1)N1CCc2nc(N3C4CCCC3CNC4)sc2C1 [Example 273, 1-(2-(3,9-diazabicyclo[3.3.1]nonan-9-yl)-6,7-dihydrothiazolo[5,4-c]pyridin-5(4H)-yl)-2-cyclopentylethan-1-one]
activity at 3 µM (m-IMCD3 cells): -11% | activity at 3 µM [1]: 58%

O=C(CC1CCCC1)N1CCc2nc(N3CC4CCC(C3)N4)sc2C1 [Example 276, 1-(2-(3,8-diazabicyclo[3.2.1]octan-3-yl)-6,7-dihydrothiazolo[5,4-c]pyridin-5(4H)-yl)-2-cyclopentylethan-1-one]
activity at 3 µM (m-IMCD3 cells): 13% | activity at 3 µM [1]: 41%

O=C(CC1CCCC1)N1CCc2nc(N3C[C@@H]4C[C@H]3CN4)sc2C1 [Example 277, 1-(2-((1S,4S)-2,5-diazabicyclo[2.2.1]heptan-2-yl)-6,7-dihydrothiazolo[5,4-c]pyridin-5(4H)-yl)-2-cyclopentylethan-1-one]
activity at 3 µM (m-IMCD3 cells): 6% | activity at 3 µM [1]: 42%

O=C(CC1CCCC1)N1CCc2nc(N3C[C@H]4C[C@@H]3CN4)sc2C1 [Example 279, 1-(2-((1R,4R)-2,5-diazabicyclo[2.2.1]heptan-2-yl)-6,7-dihydrothiazolo[5,4-c]pyridin-5(4H)-yl)-2-cyclopentylethan-1-one]
activity at 3 µM (m-IMCD3 cells): 19% | activity at 3 µM [1]: 27%

O=C(CC1CCCC1)N1CCc2nc(N3CC4CCCC(C3)N4)sc2C1 [Example 280, 1-(2-(3,9-diazabicyclo[3.3.1]nonan-3-yl)-6,7-dihydrothiazolo[5,4-c]pyridin-5(4H)-yl)-2-cyclopentylethan-1-one]
activity at 3 µM (m-IMCD3 cells): -10% | activity at 3 µM [1]: 33%

O=C(CC1CCCC1)N1CCc2sc(N3C4CCC3CNC4)nc2C1 [Example 281, 1-(2-(3,8-diazabicyclo[3.2.1]octan-8-yl)-6,7-dihydrothiazolo[4,5-c]pyridin-5(4H)-yl)-2-cyclopentylethan-1-one]
activity at 3 µM (m-IMCD3 cells): -9% | activity at 3 µM [1]: 51%

CC(C)(C)CC(=O)N1CCc2sc(N3C4CCC3CNC4)nc2C1 [Example 282, 1-(2-(3,8-diazabicyclo[3.2.1]octan-8-yl)-6,7-dihydrothiazolo[4,5-c]pyridin-5(4H)-yl)-3,3-dimethylbutan-1-one]
activity at 3 µM (m-IMCD3 cells): 3% | activity at 3 µM [1]: 35%

O=S(=O)(Cc1ccc(F)cc1)N1CCc2nc(N3C4CCC3CNC4)sc2C1 [Example 285, 2-(3,8-diazabicyclo[3.2.1]octan-8-yl)-5-((4-fluorobenzyl)sulfonyl)-4,5,6,7-tetrahydrothiazolo[5,4-c]pyridine]
activity at 3 µM (m-IMCD3 cells): -3% | activity at 3 µM [1]: 35%

CCN1CCN(c2nc3c(s2)CN(C(=O)CC(C)(C)C)CC3)CC1 [Example 299, 1-(2-(4-ethylpiperazin-1-yl)-6,7-dihydrothiazolo[5,4-c]pyridin-5(4H)-yl)-3,3-dimethylbutan-1-one]
activity at 3 µM (m-IMCD3 cells): 3%

CN1CC2CCC(C1)N2c1nc2c(s1)CN(C(=O)COc1ccc(F)cc1)CC2 [Example 301, 2-(4-fluorophenoxy)-1-(2-(3-methyl-3,8-diazabicyclo[3.2.1]octan-8-yl)-6,7-dihydrothiazolo[5,4-c]pyridin-5(4H)-yl)ethan-1-one]
activity at 3 µM (m-IMCD3 cells): -6%

Cc1ccc(-c2nc3c(s2)CN(C(=O)CC2CCCC2)CC3)cn1 [Example 305, 2-cyclopentyl-1-(2-(6-methylpyridin-3-yl)-6,7-dihydrothiazolo[5,4-c]pyridin-5(4H)-yl)ethan-1-one]
activity at 3 µM (m-IMCD3 cells): 26%

Cc1cncc(-c2nc3c(s2)CN(C(=O)CC2CCCC2)CC3)c1 [Example 306, 2-cyclopentyl-1-(2-(5-methylpyridin-3-yl)-6,7-dihydrothiazolo[5,4-c]pyridin-5(4H)-yl)ethan-1-one]
activity at 3 µM (m-IMCD3 cells): -3%
